# Laboratory results: patent US9198967B2, “Pharmaceutical compositions active in preventing, stabilizing and treating Alzheimer's disease” (priority 2009, dated 2015)
# Tested on: fusiform erythrocytes (FE)
# Test: FE percentage by Nomarski microscopy on 400 erythrocytes, 6-month clinical study
# Type: in vivo, human
# Details: 6 months
# Method: The effect of the composition of the invention on FE is measured by the percentage difference in fusiform erythrocytes present in the patient's blood before and after treatment with the composition of the invention.
# During the assessments blood was collected, after fasting since the previous evening, into heparinized and non-heparinized tubes. Aliquots of 5 ml were collected (2 of plasma and 1 of serum) from the brachial vein. The collected blood was immediately centrifuged and kept at −80° C. until required for the measurements. A fourth aliquot of 2 ml, without heparin, was collected for FE analysis.
# FE measurements were carried out by isolating the erythrocyte pellet by centrifugation (100×g for 15 minutes at 4° C.) and diluting it in 2 ml of a citrate-phosphate-dextrose solution with adenine (CPDA) then centrifuged once more.
# After centrifugation the upper part of the solution was removed and the process repeated three times always resuspending with CPDA.
# Immediately after the last preparation, FE percentage was calculated using a microscope with Nomarski optics based on an analysis of 400 erythrocytes [Mohanty J G, Eckley D M, J D Williamson et al. Do red blood cell-β-amyloid interaction alter oxygen delivery in Alzheimer's disease? Adv Exp Med Biol 2008; 614:29-35.]
smiles,measurement,value
COc1cc2c(cc1OC)C(=O)C(CC1CCN(Cc3ccccc3)CC1)C2 (stereo not shown) [Donepezil],effect on the number of FE (in words),improvement in the FE
